The target in the assay is recombinant human integrin αvβ6 (Homo sapiens (Human), UniProt P06756+P18564). As to the kind of experiment: Solid phase integrin αvβ6 binding assay. The note with it: plate-coated integrin; recombinant TGFβ1 LAP 0.67 ug/ml as ligand; 2 hours at 25° C.; read-out: αvβ6 Inhibition IC50 (nM) - range. The procedure:
Example B1—Solid Phase Integrin αvβ6 Binding Assay
Microplates were coated with recombinant human integrin αvβ6 (2 ug/ml) in PBS (100 ul/well 25° C., overnight). The coating solution was removed, washed with wash buffer (0.05% Tween 20; 0.5 mM MnCl2; in 1×TBS). Plate was blocked with 200 ul/well of Block Buffer (1% BSA; 5% sucrose; 0.5 mM MnCl2; in 1×TBS) at 37° C. for 2 h. Dilutions of testing compounds and recombinant TGFβ1 LAP (0.67 ug/ml) in binding buffer (0.05% BSA; 2.5% sucrose; 0.5 mM MnCl2; in 1×TBS) were added. The plate was incubated for 2 hours at 25° C., washed, and incubated for 1 hour with Biotin-Anti-hLAP. Bound antibody was detected by peroxidase-conjugated streptavidin. The IC50 values for testing compounds were calculated by a four-parameter logistic regression.
The compounds tested were compound samples prepared according to procedures described in the Synthetic Examples section, with the stereochemical purity as indicated in the Examples indicated.

Chain of recombinant human integrin αvβ6 (P06756 31-992): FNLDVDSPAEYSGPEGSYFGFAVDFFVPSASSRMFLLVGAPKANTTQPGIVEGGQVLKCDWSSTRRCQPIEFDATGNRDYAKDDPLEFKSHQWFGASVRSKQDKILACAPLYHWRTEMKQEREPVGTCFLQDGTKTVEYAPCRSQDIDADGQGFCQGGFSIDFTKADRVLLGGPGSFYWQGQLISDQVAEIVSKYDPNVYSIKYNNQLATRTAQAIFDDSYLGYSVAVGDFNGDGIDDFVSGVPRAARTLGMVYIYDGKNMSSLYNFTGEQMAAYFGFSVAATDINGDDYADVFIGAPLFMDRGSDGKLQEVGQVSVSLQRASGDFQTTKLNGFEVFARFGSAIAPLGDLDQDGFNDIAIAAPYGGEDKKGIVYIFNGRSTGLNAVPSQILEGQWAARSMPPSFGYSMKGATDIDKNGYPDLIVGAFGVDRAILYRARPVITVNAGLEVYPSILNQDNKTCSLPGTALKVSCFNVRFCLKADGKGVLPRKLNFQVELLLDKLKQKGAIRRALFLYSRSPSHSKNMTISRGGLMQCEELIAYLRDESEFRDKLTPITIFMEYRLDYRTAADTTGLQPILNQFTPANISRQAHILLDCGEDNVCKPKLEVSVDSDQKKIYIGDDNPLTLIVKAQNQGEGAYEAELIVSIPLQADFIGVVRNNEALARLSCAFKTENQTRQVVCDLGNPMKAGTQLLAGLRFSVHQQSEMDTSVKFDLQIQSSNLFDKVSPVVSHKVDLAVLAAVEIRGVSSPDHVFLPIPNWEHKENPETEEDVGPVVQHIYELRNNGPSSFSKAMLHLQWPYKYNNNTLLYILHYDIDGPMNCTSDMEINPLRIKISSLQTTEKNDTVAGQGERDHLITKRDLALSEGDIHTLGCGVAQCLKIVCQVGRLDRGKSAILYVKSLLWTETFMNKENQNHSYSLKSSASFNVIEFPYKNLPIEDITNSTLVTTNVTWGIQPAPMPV
Chain of recombinant human integrin αvβ6 (P18564 22-707): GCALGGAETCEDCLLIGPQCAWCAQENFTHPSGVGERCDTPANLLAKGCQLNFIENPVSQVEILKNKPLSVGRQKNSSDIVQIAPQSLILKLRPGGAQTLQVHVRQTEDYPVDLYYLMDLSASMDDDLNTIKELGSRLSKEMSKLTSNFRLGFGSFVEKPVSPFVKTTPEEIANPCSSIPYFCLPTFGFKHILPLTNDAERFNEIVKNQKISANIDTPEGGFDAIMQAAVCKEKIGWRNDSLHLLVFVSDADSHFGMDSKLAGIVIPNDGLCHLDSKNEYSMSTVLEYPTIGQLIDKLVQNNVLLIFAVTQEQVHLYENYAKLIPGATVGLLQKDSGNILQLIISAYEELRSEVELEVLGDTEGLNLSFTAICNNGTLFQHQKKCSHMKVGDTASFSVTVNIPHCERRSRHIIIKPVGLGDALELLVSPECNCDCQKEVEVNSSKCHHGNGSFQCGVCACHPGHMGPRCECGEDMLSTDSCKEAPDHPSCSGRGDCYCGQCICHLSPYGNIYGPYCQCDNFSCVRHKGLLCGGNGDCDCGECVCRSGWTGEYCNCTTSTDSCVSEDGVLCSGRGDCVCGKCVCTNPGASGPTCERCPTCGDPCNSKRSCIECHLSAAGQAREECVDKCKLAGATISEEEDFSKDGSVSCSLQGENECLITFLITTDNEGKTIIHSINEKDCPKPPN

`O=C(N[C@@H](CCN1CC[C@@H](CCc2ccc3c(n2)NCCC3)C1)C(=O)O)c1cnccn1` [Compound 50]: the IC50 was below 50 nM.

Take `O=C(N[C@@H](CCN1CC[C@@H](CCc2ccc3c(n2)NCCC3)C1)C(=O)O)c1cccs1` [Compound 51]: the concentration for half-maximal inhibition (IC50) was below 50 nM.

In the case of `O=C(N[C@@H](CCN1CCC[C@@](F)(CCc2ccc3c(n2)NCCC3)C1)C(=O)O)c1ccccc1` [Compound 52], the IC50 is 50 to 250 nM. Then `Cc1cc(C)n(-c2cccc(C(=O)N[C@@H](CCN3CCC[C@@](F)(CCc4ccc5c(n4)NCCC5)C3)C(=O)O)c2)n1` [Compound 53], with below 50 nM; and `O=C(N[C@@H](CCN1CCCC(CCc2ccc3c(n2)NCCC3)C1)C(=O)O)c1ccccc1` (some centres unmarked) [Compound 54], with below 50 nM. Then `O=C(N[C@@H](CCN1CC[C@@H](CCc2ccc3c(n2)NCCC3)C1)C(=O)O)c1cccc(-c2cccs2)c1` [Compound 55], with below 50 nM. In the case of `O=C(N[C@@H](CCN1CC[C@@H](CCc2ccc3c(n2)NCCC3)C1)C(=O)O)c1cccc(-c2ccccc2)c1` [Compound 56] it was below 50 nM; in that of `Cn1nccc1-c1cccc(C(=O)N[C@@H](CCN2CC[C@@H](CCc3ccc4c(n3)NCCC4)C2)C(=O)O)c1` [Compound 57], below 50 nM; in that of `Cn1cc(-c2cccc(C(=O)N[C@@H](CCN3CC[C@@H](CCc4ccc5c(n4)NCCC5)C3)C(=O)O)c2)cn1` [Compound 58], below 50 nM. As to `O=C(N[C@@H](CCN1CC[C@@H](CCc2ccc3c(n2)NCCC3)C1)C(=O)O)c1cccc(-c2ncco2)c1` [Compound 59], the IC50 was below 50 nM. In the case of `CC(C)n1ncc2c(C(=O)N[C@@H](CCN3CC[C@@H](CCc4ccc5c(n4)NCCC5)C3)C(=O)O)cccc21` [Compound 60] it was below 50 nM. Take `CC(C)Cn1ncc2c(C(=O)N[C@@H](CCN3CC[C@@H](CCc4ccc5c(n4)NCCC5)C3)C(=O)O)cccc21` [Compound 61]: the IC50 was below 50 nM. With `O=C(N[C@@H](CCN1CCC[C@@](F)(CCc2ccc3c(n2)NCCC3)C1)C(=O)O)c1cccc(F)c1Cl` [Compound 62], the IC50 was 50 to 250 nM.

With `O=C(N[C@@H](CCN1CC[C@@](F)(CCc2ccc3c(n2)NCCC3)C1)C(=O)O)c1c(Cl)cccc1Cl` [Compound 63], the IC50 lay in the range of 50 to 250 nM. In the case of `O=C(N[C@@H](CCN1CC[C@](F)(CCc2ccc3c(n2)NCCC3)C1)C(=O)O)c1c(Cl)cccc1Cl` [Compound 64] it was 50 to 250 nM; in that of `O=C(N[C@@H](CCN1CC[C@@H](CCc2ccc3c(n2)NCCC3)C1)C(=O)O)c1cccc(-c2cscn2)c1` [Compound 65], 50 to 250 nM; in that of `O=C(N[C@@H](CCN1CC[C@@H](CCc2ccc3c(n2)NCCC3)C1)C(=O)O)c1cccc(-c2cncs2)c1` [Compound 66], below 50 nM. Then `O=C(N[C@@H](CCN1CC[C@@H](CCc2ccc3c(n2)NCCC3)C1)C(=O)O)c1cccc(F)c1F` [Compound 67], with below 50 nM; and `CC(C)(C)c1cccc(C(=O)N[C@@H](CCN2CC[C@@H](CCc3ccc4c(n3)NCCC4)C2)C(=O)O)c1` [Compound 68], with below 50 nM; and `Cn1cc(C(=O)N[C@@H](CCN2CC[C@@H](CCc3ccc4c(n3)NCCC4)C2)C(=O)O)cn1` [Compound 69], with 50 to 250 nM. In the case of `O=C(N[C@@H](CCN1CC[C@@H](CCc2ccc3c(n2)NCCC3)C1)C(=O)O)c1ccncn1` [Compound 70] it was below 50 nM; in that of `CC(C)n1cc2c(C(=O)N[C@@H](CCN3CC[C@@H](CCc4ccc5c(n4)NCCC5)C3)C(=O)O)cccc2n1` [Compound 71], below 50 nM.

`CC(C)Cn1cc2c(C(=O)N[C@@H](CCN3CC[C@@H](CCc4ccc5c(n4)NCCC5)C3)C(=O)O)cccc2n1` [Compound 72]: the IC50 was below 50 nM.

As for `CCCCC(=O)N1CCCC[C@H]1C(=O)N[C@@H](CCN1CC[C@@H](CCc2ccc3c(n2)NCCC3)C1)C(=O)O` [Compound 73], the IC50 is below 50 nM.

As to `O=C(O)[C@H](CCN1CC[C@@H](CCc2ccc3c(n2)NCCC3)C1)NC(=O)[C@@H]1CCCCN1C(=O)C1CCC1` [Compound 74], the IC50 was below 50 nM.

Regarding `O=C(Cc1ccccc1Cl)N[C@@H](CCN1CC[C@@H](CCc2ccc3c(n2)NCCC3)C1)C(=O)O` [Compound 75], the IC50 is below 50 nM. In the case of `O=C(N[C@@H](CCN1CC[C@@H](CCc2ccc3c(n2)NCCC3)C1)C(=O)O)c1cc(F)cc(C(F)(F)F)c1` [Compound 76] it was below 50 nM. In the case of `CC(C)(O)CN1CCC[C@H]1C(=O)N[C@@H](CCN1CC[C@@H](CCc2ccc3c(n2)NCCC3)C1)C(=O)O` [Compound 77] it was below 50 nM; in that of `CCCCC(=O)N1CCC[C@@H](C(=O)N[C@@H](CCN2CC[C@@H](CCc3ccc4c(n3)NCCC4)C2)C(=O)O)C1` [Compound 78], below 50 nM; in that of `CC(C)(C)C(=O)N1CCC[C@@H](C(=O)N[C@@H](CCN2CC[C@@H](CCc3ccc4c(n3)NCCC4)C2)C(=O)O)C1` [Compound 79], below 50 nM. In the case of `COC(=O)N1CCC[C@@H](C(=O)N[C@@H](CCN2CC[C@@H](CCc3ccc4c(n3)NCCC4)C2)C(=O)O)C1` [Compound 80] it was below 50 nM; in that of `O=C(O)[C@H](CCN1CC[C@@H](CCc2ccc3c(n2)NCCC3)C1)NC(=O)[C@@H]1CCN1Cc1ccccc1` [Compound 81], 50 to 250 nM. For the compound `Cn1nc(-c2ccccc2)c2cccc(C(=O)N[C@@H](CCN3CC[C@@H](CCc4ccc5c(n4)NCCC5)C3)C(=O)O)c21` [Compound 82], the IC50 is below 50 nM. In the case of `O=C(N[C@H](CCN1CC[C@@H](CCc2ccc3c(n2)NCCC3)C1)C(=O)O)c1cccc(-c2ccccc2)c1` [Compound 83] it was below 50 nM. Turning to `O=C(N[C@H](CCN1CC[C@@H](CCc2ccc3c(n2)NCCC3)C1)C(=O)O)c1cccc(-c2cncs2)c1` [Compound 84], the IC50 is below 50 nM.

As to `O=C(N[C@H](CCN1CC[C@@H](CCc2ccc3c(n2)NCCC3)C1)C(=O)O)c1cccc(-c2cscn2)c1` [Compound 85], the IC50 is below 50 nM. In the case of `Cn1nccc1-c1cccc(C(=O)N[C@H](CCN2CC[C@@H](CCc3ccc4c(n3)NCCC4)C2)C(=O)O)c1` [Compound 86], the IC50 is below 50 nM.

Regarding `Cn1cc(-c2cccc(C(=O)N[C@H](CCN3CC[C@@H](CCc4ccc5c(n4)NCCC5)C3)C(=O)O)c2)cn1` [Compound 87], the IC50 was below 50 nM. Then `O=C(N[C@H](CCN1CC[C@@H](CCc2ccc3c(n2)NCCC3)C1)C(=O)O)c1cccc(-c2ncco2)c1` [Compound 88], with below 50 nM; and `O=C(O)[C@H](CCN1CC[C@@H](CCc2ccc3c(n2)NCCC3)C1)NC(=O)[C@@H]1COCCN1Cc1ccccc1` [Compound 89], with below 50 nM. In the case of `O=C(O)[C@H](CCN1CC[C@@H](CCc2ccc3c(n2)NCCC3)C1)NC(=O)[C@@H]1CCCN1Cc1ncccn1` [Compound 90] it was below 50 nM; in that of `O=C(O)[C@H](CCN1CC[C@@H](CCc2ccc3c(n2)NCCC3)C1)NC(=O)[C@@H]1CCCN1CC1CC1` [Compound 91], 50 to 250 nM; in that of `O=C(O)[C@H](CCN1CC[C@@H](CCc2ccc3c(n2)NCCC3)C1)NC(=O)[C@@H]1CCCN1CC1CCC1` [Compound 92], below 50 nM. In the case of `O=C(O)[C@H](CCN1CC[C@@H](CCc2ccc3c(n2)NCCC3)C1)NC(=O)[C@@H]1CCCCN1Cc1ccccc1` [Compound 93] it was 50 to 250 nM. With `CCC(CC)C(=O)N[C@@H](CCN1CCC[C@@](F)(CCc2ccc3c(n2)NCCC3)C1)C(=O)O` [Compound 94], the IC50 is 50 to 250 nM.

`CCC(CC)C(=O)N[C@@H](CCN1CC[C@@H](CCc2ccc3c(n2)NCCC3)C1)C(=O)O` [Compound 95]: the 50% inhibitory concentration (IC50) is below 50 nM.

In the case of `O=C(N[C@@H](CCN1CCC[C@@](F)(CCc2ccc3c(n2)NCCC3)C1)C(=O)O)c1cccc(N2CCOCC2)c1` [Compound 96], the IC50 lay in the range of 50 to 250 nM. Then `O=C(N[C@@H](CCN1CCC[C@@](F)(CCc2ccc3c(n2)NCCC3)C1)C(=O)O)c1cc(F)cc(F)c1` [Compound 97], with 50 to 250 nM. In the case of `Cc1nn(C)cc1-c1nn(C)c2c(C(=O)N[C@@H](CCN3CC[C@@H](CCc4ccc5c(n4)NCCC5)C3)C(=O)O)cccc12` [Compound 98] it was 250 to 1000 nM; in that of `O=C(O)[C@H](CCN1CC[C@@H](CCc2ccc3c(n2)NCCC3)C1)NC(=O)[C@@H]1CCCN1Cc1cccnc1` [Compound 99], below 50 nM.

As for `COCCOc1cccc(C(=O)N[C@@H](CCN2CCC[C@@](F)(CCc3ccc4c(n3)NCCC4)C2)C(=O)O)c1` [Compound 100], the IC50 is 50 to 250 nM. Then `O=C(N[C@@H](CCN1CCC[C@@](F)(CCc2ccc3c(n2)NCCC3)C1)C(=O)O)c1c(Cl)cccc1Cl` [Compound 101], with 250 to 1000 nM; and `Cn1cc(-c2nn(C)c3c(C(=O)N[C@@H](CCN4CC[C@@H](CCc5ccc6c(n5)NCCC6)C4)C(=O)O)cccc23)cn1` [Compound 102], with 250 to 1000 nM; and `O=C(N[C@@H](CCN1CCC[C@](F)(CCc2ccc3c(n2)NCCC3)C1)C(=O)O)c1cccc(F)c1Cl` [Compound 103], with below 50 nM. As for `O=C(N[C@@H](CCN1CCC[C@](F)(CCc2ccc3c(n2)NCCC3)C1)C(=O)O)c1cc(F)cc(F)c1` [Compound 104], the IC50 was below 50 nM. In the case of `O=C(N[C@@H](CCN1CCC[C@@](F)(CCc2ccc3c(n2)NCCC3)C1)C(=O)O)c1cc(F)cc(C(F)(F)F)c1` [Compound 105] it was 50 to 250 nM.

For orientation: IC50 means the midpoint of a concentration-inhibition curve.
